Data: patent publication US20080269114A1, “Y4 Selective Receptor Agonists For Thereapeutic Interventions” (priority 2004, published 2008)

Tests used:
food intake = test: Effect of Y4 selective agonists on acute food intake in mice; type: in vivo, mice (ddy strain)
Description: . In FIG. 2 is shown the accumulated food intake of the mice during 8 hours. […] The 50% suppressive effect on food intake was observed also when this was measured during the first full hour.
Effect of Y4 Selective Agonists on Acute Food Intake in Mice
The ddy strain of mice were used, 34-37 g and 8-9 weeks of age (Japan SLC, Shizuuoka, Japan). The mice were individually house in a regulated environment (22 C, 55% humidity) in a 12-hour light-dark cycle with light on at 7 AM. Food and water were available ad libitum except just before experiments (see below). The mice were acclimatized to subcutaneous injections during the week before experiments started. Mice were used once each in the experiments. Just before administration the peptides were diluted in physiological saline and administered in 100 μL volume for subcutaneous administration. Results are expressed as mean±SE. Analysis of variance followed by Bonferroni's test were used to assess differences among groups.
Mice were deprived of food but with free access to water for 16 hours prior to the actual test and experiments were started at 10 AM on the following day. A standard diet was used (CLEA Japan, Inc., Tokyo, Japan) and food intake was measured by subtracting uneaten food from the initially premeausured food after administration and checking for food spillage.

human Y1 receptor = target: T1, human Y1 receptor (Homo sapiens, UniProt P25929); test: Human Y1 receptor potency assay (inositol phosphate turnover, COS-7 cells); type: cell-based; settings: relative to PP
T1 construct: expressed in transfected cells; host or cells: COS-7
T1 sequence (P25929 1-384): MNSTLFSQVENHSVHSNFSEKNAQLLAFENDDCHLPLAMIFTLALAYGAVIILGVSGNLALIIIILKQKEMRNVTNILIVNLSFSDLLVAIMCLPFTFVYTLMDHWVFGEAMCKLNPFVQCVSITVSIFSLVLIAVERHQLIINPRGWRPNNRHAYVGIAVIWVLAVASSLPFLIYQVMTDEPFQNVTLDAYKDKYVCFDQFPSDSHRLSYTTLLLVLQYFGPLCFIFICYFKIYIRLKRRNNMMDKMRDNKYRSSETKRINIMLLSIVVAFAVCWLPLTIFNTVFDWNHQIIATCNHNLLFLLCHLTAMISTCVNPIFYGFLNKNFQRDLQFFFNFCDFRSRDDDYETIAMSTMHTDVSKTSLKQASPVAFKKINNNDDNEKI
Description: Potency of the test compounds on the human Y2 receptor is determined by performing dose-response experiments in COS-7 cells transiently transfected with the human Y2 receptor as well as a promiscuous G protein, Gqi5 which ensures that the Y2 receptor couples through a Gq pathway leading to an increase in inositol phosphate turnover.
(§1) Cells are washed twice in buffer, 20 mM HEPES, pH 7.4, supplemented with 140 mM NaCl, 5 mM KCl, 1 mM MgSO4, 1 mM CaCl2, 10 mM glucose, 0.05% (w/v) bovine serum; and are incubated in 0.5 ml buffer supplemented with 10 mM LiCl at 37 C for 30 min. After stimulation with various concentrations of peptide for 45 min at 37 C, cells are extracted with 10% ice-cold perchloric acid followed by incubation on ice for 30 min. The resulting supernatants are neutralized with KOH in HEPES buffer, and the generated [3H]-inositol phosphate are purified on Bio-Rad AG 1-X8 anion-exchange resin and counted in a beta counter. Determinations are made in duplicates. EC50 values were calculated using a standard pharmacological data handling software, Prism 3.0 (graphPad Sofware, San Diego, USA).
Protocol as for the Y2 potency assay, except that human Y1-transformed COS-7 cells are used.

human Y4 receptor = target: T2, human Y4 receptor (Homo sapiens, UniProt P50391); test: Human Y4 receptor potency assay (inositol phosphate turnover, COS-7 cells); type: cell-based; settings: relative to PP
T2 construct: expressed in transfected cells; host or cells: COS-7
T2 sequence (P50391 whole entry): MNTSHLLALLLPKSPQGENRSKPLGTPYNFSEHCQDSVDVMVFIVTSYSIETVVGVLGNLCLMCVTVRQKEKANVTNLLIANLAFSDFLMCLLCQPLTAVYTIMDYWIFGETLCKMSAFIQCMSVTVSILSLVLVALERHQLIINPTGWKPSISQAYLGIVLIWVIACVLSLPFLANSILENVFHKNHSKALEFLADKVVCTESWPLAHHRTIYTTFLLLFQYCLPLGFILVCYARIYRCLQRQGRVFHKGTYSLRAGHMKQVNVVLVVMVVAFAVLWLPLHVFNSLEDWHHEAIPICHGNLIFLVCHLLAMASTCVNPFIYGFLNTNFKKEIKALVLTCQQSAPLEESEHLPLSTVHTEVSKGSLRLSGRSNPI
Description: as §1, with “After” for “Cells are washed twice in buffer, 20 mM HEPES, pH 7.4, supplemented with 140 mM NaCl, 5 mM KCl, 1 mM MgSO4, 1 mM CaCl2, 10 mM glucose, 0.05% (w/v) bovine serum; and are incubated in 0.5 ml buffer supplemented with 10 mM LiCl at 37 C for 30 min. After”

| Structure (SMILES) | period for which the suppressive effect on food intake was sustained (food intake; after the single subcutaneous injection) [h] | suppressive effect on food intake (food intake; first full hour, single subcutaneous injection, 16 hours fasted mice) [%] | potency on the Y1 receptor lower than that of PP (human Y1 receptor) | potency on the Y4 receptor lower than that of PP (human Y4 receptor) [fold] |
| --- | --- | --- | --- | --- |
| CC[C@H](C)[C@H](NC(=O)[C@H](Cc1ccc(O)cc1)NC(=O)[C@H](CCCNC(=N)N)NC(=O)[C@H](CCCNC(=N)N)NC(=O)[C@H](CC(C)C)NC(=O)[C@H](CC(=O)O)NC(=O)[C@H](C)NC(=O)[C@H](C)NC(=O)[C@H](Cc1ccc(O)cc1)NC(=O)[C@H](CCC(N)=O)NC(=O)[C@H](C)NC(=O)[C@H](CCSC)NC(=O)[C@H](CCC(N)=O)NC(=O)[C@H](CCC(=O)O)NC(=O)[C@@H]1CCCN1C(=O)[C@@H](NC(=O)[C@H](C)NC(=O)[C@H](CC(N)=O)NC(=O)[C@H](CC(=O)O)NC(=O)CNC(=O)[C@@H]1CCCN1C(=O)[C@H](Cc1ccc(O)cc1)NC(=O)[C@@H](NC(=O)[C@@H]1CCCN1C(=O)[C@H](CCC(=O)O)NC(=O)[C@H](CC(C)C)NC(=O)[C@@H]1CCCN1)C(C)C)[C@@H](C)O)C(=O)N[C@@H](CC(N)=O)C(=O)N[C@@H](CCSC)C(=O)N[C@@H](CC(C)C)C(=O)N[C@H](C(=O)N[C@@H](CCCNC(=N)N)C(=O)N1CCC[C@H]1C(=O)N[C@@H](CCCNC(=N)N)C(=O)N[C@@H](Cc1ccc(O)cc1)C(N)=O)[C@@H](C)O [PP2-36] | 8 | 50 | 3-4 fold | – |
| CC[C@H](C)[C@H](NC(=O)[C@H]1CSSC[C@H](NC(=O)[C@H](C)N)C(=O)N[C@@H](CC(C)C)C(=O)N[C@@H](CCC(=O)O)C(=O)N2CCC[C@H]2C(=O)N[C@@H](C(C)C)C(=O)N[C@@H](Cc2ccc(O)cc2)C(=O)N2CCC[C@H]2C(=O)NCC(=O)N[C@@H](CC(=O)O)C(=O)N[C@@H](CC(N)=O)C(=O)N[C@@H](C)C(=O)N[C@@H]([C@@H](C)O)C(=O)N2CCC[C@H]2C(=O)N[C@@H](CCC(=O)O)C(=O)N[C@@H](CCC(N)=O)C(=O)N[C@@H](CCSC)C(=O)N[C@@H](C)C(=O)N[C@@H](CCC(N)=O)C(=O)N[C@@H](Cc2ccc(O)cc2)C(=O)N[C@@H](C)C(=O)N[C@@H](C)C(=O)N[C@@H](CC(=O)O)C(=O)N[C@@H](CC(C)C)C(=O)N[C@@H](CCCNC(=N)N)C(=O)N[C@@H](CCCNC(=N)N)C(=O)N1)C(=O)N[C@@H](CC(N)=O)C(=O)N[C@@H](CCSC)C(=O)N[C@@H](CC(C)C)C(=O)N[C@H](C(=O)N[C@@H](CCCNC(=N)N)C(=O)N1CCC[C@H]1C(=O)N[C@@H](CCCNC(=N)N)C(=O)N[C@@H](Cc1ccc(O)cc1)C(N)=O)[C@@H](C)O [[Cys2,D-Cys27]PP] | – | – | – | 7 |
